The values below come from patent publication US20020037885A1, “Therapeutic compounds” (priority 1999, published 2002).

For one data set, the system named is Ih channel. Particulars: cited from earlier work.
Data set [1] concerns hyperpolarisation-activated inward cation current Ih in dorsal root ganglion (DRG) cells. The experiment in a line: Inhibition of hyperpolarisation-activated cation current (Ih), whole cell voltage clamp on cultured DRG cells. To be noted: at 1E-5 M. It is filed as cell-based, rat.
For data set [2], the system named is marble burying behaviour in mice. The experiment in a line: Mouse Marble Burying Assay (BUR). It is filed as in vivo. Particulars: Mus musculus, sc. As for the experimental part:
This assay was carried out essentially according to the procedure described by Treit et al. (1981) Pharmacol Biochem Behav; 15; 619-626.
The results are presented as BUR ED50 (sc). This is the effective dose causing 50% inhibition of burying compared to control mice.

Data set [3] relates to hyperpolarisation-activated inward cation current Ih in dorsal root ganglion (DRG) cells. The experiment in a line: Inhibition of hyperpolarisation-activated cation current (Ih), whole cell voltage clamp on cultured DRG cells. It is filed as cell-based. To be noted: (-) log concentration at which Ih activation rate constant kact is reduced by 50%; mean; rat DRG cells. As for the experimental part:
A) determining the potency of compounds to inhibit the hyperpolarisation-activated inward cation current Ih in dorsal root ganglion (DRG) cells of the rat; the effect is measured as the decrease in Ih activation rate and is expressed as the half maximal effect concentration (IC50) or the negative logarithm of this IC50 (known as pIC50).
To obtain E15 DRGs, pregnant Wistar rats were sacrificed. Embryos were removed and spinal cords with DRG attached to both sides were dissected out and collected in Hanks balanced salt solution (HBSS; Gibco). DRG were separated from the spinal cord and pooled in HBSS without Ca^2+ and Mg^2+. Dissociation of intact DRG was started by incubation with a 0.25% trypsin solution for 30 min at 37° C. Trypsination was stopped by diluting the enzyme and centrifugation (1 min; 2500 rpm). After aspiration of the supernatant the tissue pellet was triturated with DMEMF10 (DMEM supplemented with 10% fetal bovine serum (Hyclone), 6 g/l glucose and 2 mM I-glutamine) and centrifuged for 10 min at 1700 rpm. Dissociated DRG cells were resuspended in culture medium (DMEMF10 with 50 ng/ml NGF 2.5S (Alomone labs)), counted and plated out in a density of 1-2.105 cells on collagen (50 μg/ml) and/or poly-l-lysine (10-20 μg/ml) coated glass coverslips in 24-well tissue culture plates. Plates were kept in a humidified incubator at 37° C. and 5% CO2 for 72 hrs. Glial cell proliferation was inhibited when necessary by adding cytosine arabinoside (Ara-c) at a concentration of 5.10^−7 M. After 3 days fresh culture medium was administered. Medium was subsequently changed every […].
DRG cells were sampled with the whole cell voltage clamp method. Glass electrodes were pulled from thick-walled borosilicate capillaries with filament (1 mm outer diameter). Pipette resistance was 2-5 MΩ. Series resistance (5-15 MΩ) was compensated for to ensure so that potential errors made in the determination of the actual membrane potential were less then 2 mV. Cell capacitance (10-75 pF) compensation was used to compensate for capacitive currents. The extracellular solution contained (in mM): NaCl 140; KCl 5; CaCl2 2; MgCl2 1; D(+) glucose 5.6;HEPES 5; Sucrose 30; pH=7.4. The pipette solution contained (in mM): K-gluconate 119; NaCl 5; KCl 13; CsCl 2; CaCl2 1; EGTA 10;HEPES 10; pH=7.2. Cells were preincubated for more then 1½ hours with different concentrations (1E-9 to 1E-4 M) of test compound dissolved in extracellular solution at room temperature (20° C.) in normal air. Larger cells that appeared round with a pronounced halo under phase-contrast microscopy were selected because almost all of them expressed Ih. Data were acquired with a Digidata 1200® analogue to digital interface using PCLAMP® software (both from Axon Instruments). For Ih activation the cell was held at −63 mV and stepped to −123mV (potentials after correction for liquid junction potential). Current traces were selected for soundness, averaged and fitted to a first order exponential using PCLAMP® software (fit between 60 and 950 ms to avoid biasing by transient currents). Activation time constants (τ) for Ih under different drug concentrations were derived from this fit. The activation rate constant for Ih is defined as kact=1/τ.
The pIC50 is the (-) log concentration of a compound at which the Ih activation rate constant kact is reduced by 50%. pIC50 for a compound could be estimated adequately by fitting kact to the logarithm of the concentration with a logistic function using PRISM® software (Graphpad Inc.). The function chosen is:
kact=A/(1+10^ (log([compound])+pIC50)); A is kact [compound]=0M.
Averaging all control measurements yields that A=3.52 s^−1 and the maximum kact was forced to this value for all compounds in this study. The Hill slope that normally is estimated in concentration-effect relations appeared to be about 1 and was subsequently fixed to this value. […]

Data set [4] deals with REM sleep in male Wistar rats. Description: Rat Sleep Analysis: suppression of REM sleep. It is filed as in vivo. Particulars: first 3 hours after drug administration. As for the experimental part: Suppression of REM sleep in male Wistar rats was measured after treatment with compounds according to the invention or reference antidepressants using the methods described by Ruigt et al.(Electroencephalography and clinic Neurophysiology, 1989, 73, pages 52-63 & 64-71)
The values reported in Table 1 are expressed as percentage change over placebo for the amount of REM sleep in the first 3 hours after drug administration.

Where [5] appears, read: effective dose causing 50% inhibition of burying compared to control mice, read-out: BUR ED50 (SC).

Molecules are shown by their SMILES. Read-outs that look alike come from different tables or passages of the source.

Turning to `[Ba]` [barium], the “block of the Ih channel” value in the data set on Ih channel (1 mM barium (Ba2+)) is on record as “not blocked”.
For the compound `C=CCC(N)c1ccccc1-c1noc2ncccc12.O=C(O)/C=C\C(=O)O` (stereo not drawn) [16 (5), 2-(isoxazolo[5,4-b]pyridin-3-yl)-α-2-propenyl-benzenemethanamine (Z)-butenedioate], the melting point was 187 to 188 °C (dec.). For the same compound, the “Ih amplitude, inhibition” value in data set [1] is reported as 90% inhibition at 1E-5. Also, the median effective dose (ED50) in data set [2] (Table 3, read-out: BUR s.c. ED50) came out at 1.7 mg/kg.
In the case of `O=C(O)C(=O)O.c1ccc(CNCc2ccccc2-c2noc3ccccc23)cc1` [Example 21(3), 2-(1,2-benzisoxazol-3-yl)-N-benzyl-benzenemethanamine ethanedioate], the melting point came out at 165 °C. The compound further returned a pIC50-Ih in data set [3] of 5.06.
Take `[Cs]` [caesium]: the “concentration blocking Ih” value with Ih channel (Pape 1996) is 1 to 5 mM.
Compound `C=CCC(N)c1ccccc1-c1noc2cc(Cl)ccc12.Cl` (stereo not drawn) [11(2), 2-(6-chloro-1,2-benzisoxazol-3-yl)-α-2-propenyl-benzenemethanamine hydrochloride] had a melting point of 174 to 185 °C. This compound returned a pIC50-Ih in data set [3] of 6.44. For the same compound, the ED50 in data set [2] (setting [5]) came to 0.7 mg/kg.
In turn, `C=CC[C@H](N)c1ccccc1-c1noc2ccccc12.Cl` [Example 13, (S)-2-(1,2-Benzisoxazol-3-yl)-α-2-propenyl-benzenemethanamine Hydrochloride] registered a melting point of 191 °C. For the same compound, the pIC50-Ih in data set [3] came out at 6.48. Moreover, the “percentage change over placebo for the amount of REM sleep” value (“percentage change over placebo” for short) in data set [4] (dose 0.1 mg/kg IP) is on record as −17%. Further, in data set [4] (dose 0.32 mg/kg IP), the “percentage change over placebo” value is listed as −26%. In addition, the “percentage change over placebo” value in data set [4] (dose 1 mg/kg IP) is −100%. Besides, the ED50 in data set [2] (setting [5]) came out at 0.39 mg/kg.
The compound `C=CC[C@H](N)c1ccccc1-c1noc2cc(F)ccc12.O=C(O)/C=C/C(=O)O` [13(1), (S)-(−)-2-(6-fluoro-1,2-benzisoxazol-3-yl)-α-2-propenyl-benzenemethanamine (E)-butenedioate] returned a melting point of 146 to 149 °C. Besides, the pIC50-Ih in data set [3] was 6.13. Also, the ED50 in data set [2] (setting [5]) turned out to be 1 mg/kg.
Consider `CCN(c1ccccc1)c1cc(NC)[n+](C)c(C)n1` [ZD7288, 4-(N-ethyl-N-phenylamino)-1,2-dimethyl-6-(methyiamino)-pyrimidinium-chloride], for which the IC50 with Ih channel (Harris and Constanti 1995, read-out: IC50 for blocking Ih) is 2000 nM.
`C=CC[C@@H](N)c1ccccc1-c1noc2ccccc12.Cl` [Example 12, (R)-2-(1,2-Benzisoxazol-3-yl)-α-2-propenyl-benzenemethanamine Hydrochloride] showed a melting point of 191 °C. The same compound came in with a pIC50-Ih in data set [3] of 5.12.

As a reminder, the melting point is the temperature of the solid-liquid transition. The term ED50 denotes the dose at which the effect has come halfway, by size or by number of responders. For orientation: IC50 means the concentration that gives 50% inhibition.
